Source: ChEMBL document CHEMBL3286183, “Minor diterpene glycosides from the leaves of Stevia rebaudiana” (J Nat Prod, 2014)
Calls of active or inactive are those of the source.

Experiments:
Type in all cases: functional, organism-based
Pseudomonas aeruginosa = assay: Antimicrobial activity against Pseudomonas aeruginosa ATCC 27853
Escherichia coli = assay: Antimicrobial activity against Escherichia coli ATCC 35218
Aspergillus fumigatus = assay: Antimicrobial activity against Aspergillus fumigatus ATCC 90906
Candida albicans = assay: Antimicrobial activity against Candida albicans ATCC 90028
[1] = tested on: Mycobacterium intracellulare; assay: Antimicrobial activity against Mycobacterium intracellulare ATCC 23068
Staphylococcus aureus = assay: Antimicrobial activity against methicillin-resistant Staphylococcus aureus ATCC 43300
Cryptococcus neoformans = assay: Antimicrobial activity against Cryptococcus neoformans ATCC 90113
Plasmodium falciparum [2] = assay: Antimalarial activity against chloroquine-sensitive Plasmodium falciparum D6
Plasmodium falciparum [3] = assay: Antimalarial activity against chloroquine-resistant Plasmodium falciparum W2

Measured: Activity

C=C1C[C@@]23CC[C@H]4[C@@](C)(CCC[C@@]4(C)C(=O)O[C@@H]4O[C@H](CO)[C@@H](O)[C@H](O)[C@H]4O[C@@H]4O[C@H](CO)[C@@H](O)[C@H](O)[C@H]4O)[C@@H]2CC[C@]1(O[C@@H]1O[C@H](CO)[C@@H](O)[C@H](O[C@@H]2O[C@H](CO)[C@@H](O)[C@H](O)[C@H]2O)[C@H]1O[C@@H]1O[C@H](CO)[C@@H](O)[C@H](O)[C@H]1O)C3
not listed: Plasmodium falciparum [2] | Plasmodium falciparum [3]
inactive: all other assays above

C=C1C[C@@]23CC[C@H]4[C@@](C)(CCC[C@@]4(C)C(=O)O)[C@@H]2CC[C@]1(O[C@@H]1O[C@@H](CO)[C@@H](O[C@@H]2O[C@@H](CO)[C@@H](O)[C@H](O)[C@@H]2O)[C@H](O)[C@@H]1O[C@@H]1O[C@@H](CO)[C@@H](O)[C@H](O)[C@@H]1O)C3
not listed: Plasmodium falciparum [2] | Plasmodium falciparum [3]
inactive: all other assays above

C=C1C[C@@]23CC[C@H]4[C@@](C)(CCC[C@@]4(C)C(=O)O[C@@H]4O[C@H](CO)[C@@H](O)[C@H](O)[C@H]4O[C@@H]4O[C@H](CO)[C@@H](O)[C@H](O)[C@H]4O)[C@@H]2CC[C@]1(O[C@@H]1O[C@H](CO)[C@@H](O)[C@H](O)[C@H]1O)C3
inactive: all assays above

C=C1C[C@@]23CC[C@H]4[C@@](C)(CCC[C@@]4(C)C(=O)O[C@@H]4O[C@H](CO)[C@@H](O)[C@H](O)[C@H]4O)[C@@H]2CC[C@]1(O[C@@H]1O[C@H](C)[C@@H](O)[C@H](O)[C@@H]1O[C@@H]1O[C@H](CO)[C@@H](O)[C@H](O[C@@H]2O[C@H](CO)[C@@H](O)[C@H](O)[C@H]2O)[C@H]1O)C3
not listed: Plasmodium falciparum [2] | Plasmodium falciparum [3]
inactive: all other assays above

C=C1C[C@@]23CC[C@H]4[C@@](C)(CCC[C@@]4(C)C(=O)O[C@@H]4O[C@H](CO)[C@@H](O)[C@H](O)[C@H]4O)[C@@H]2CC[C@]1(O[C@@H]1O[C@H](CO)[C@@H](O)[C@H](O)[C@H]1O[C@@H]1O[C@H](CO)[C@@H](O)[C@H](O[C@@H]2O[C@H](CO)[C@@H](O)[C@H](O)[C@H]2O)[C@H]1O)C3
not listed: Plasmodium falciparum [2] | Plasmodium falciparum [3]
inactive: all other assays above

C=C1C[C@@]23CC[C@H]4[C@@](C)(CCC[C@@]4(C)C(=O)O[C@@H]4O[C@H](CO)[C@@H](O)[C@H](O)[C@H]4O)[C@@H]2CC[C@]1(O[C@@H]1O[C@H](C)[C@@H](O)[C@H](O)[C@@H]1O[C@@H]1O[C@H](CO)[C@@H](O)[C@H](O)[C@H]1O)C3
not listed: Plasmodium falciparum [2] | Plasmodium falciparum [3]
inactive: all other assays above

C=C1C[C@@]23CC[C@H]4[C@@](C)(CCC[C@@]4(C)C(=O)O[C@@H]4O[C@H](CO)[C@@H](O)[C@H](O)[C@H]4O)[C@@H]2CC[C@]1(O[C@@H]1O[C@H](CO)[C@@H](O)[C@H](O)[C@H]1O[C@@H]1O[C@H](CO)[C@@H](O)[C@H](O)[C@H]1O)C3
inactive: all assays above

C=C1C[C@@]23CC[C@H]4[C@@](C)(CCC[C@@]4(C)C(=O)O[C@@H]4O[C@H](CO)[C@@H](O)[C@H](O)[C@H]4O)[C@@H]2CC[C@]1(O[C@@H]1O[C@H](CO)[C@@H](O)[C@H](O[C@@H]2OC[C@@H](O)[C@H](O)[C@H]2O)[C@H]1O[C@@H]1O[C@H](CO)[C@@H](O)[C@H](O)[C@H]1O)C3
not listed: Plasmodium falciparum [2] | Plasmodium falciparum [3]
inactive: all other assays above
